Experimental data reported in BindingDB's records for doi:10.1021/acs.jmedchem.0c01488 (West China Hospital of Sichuan University, 2020).

Tests used:
[1] = Inhibition of FLT3 ITD mutant in human MOLM13 cells assessed as reduction in cell viability incubated for 72 hrs by MTT assay
[2] = Inhibition of JAK2 V617F mutant in mouse BaF3 cells assessed as reduction in cell viability incubated for 72 hrs by MTT assay
[3] = Inhibition of JAK2 V617F mutant in human SET-2 cells assessed as reduction in cell viability incubated for 72 hrs by MTT assay

Structure (SMILES) | IC50 [1] | IC50 [2] | IC50 [3]
Cc1cnc(Nc2ccc(N3CCC(N(C)CCO)CC3)c(F)c2)nc1-c1cnn(C(C)C)c1 | 0.072 µM | – | –
Cc1cnc(Nc2ccc3c(c2)CCN3CCO)nc1-c1cnn(C(C)C)c1 | 2.06 µM | 4.39 µM | 3.79 µM
Cc1cnc(Nc2ccc3c(c2)CN(CCO)C3)nc1-c1cnn(C(C)C)c1 | 1.78 µM | – | –
Cc1cnc(Nc2ccc3c(c2)CCN(CCO)C3)nc1-c1cnn(C(C)C)c1 | 1.26 µM | 0.431 µM | 0.323 µM
Cc1cnc(Nc2ccc3c(c2)CCN(CCCO)C3)nc1-c1cnn(C(C)C)c1 | 1.32 µM | 0.365 µM | 0.394 µM
CC(C)n1cc(-c2nc(Nc3ccc4c(c3)CCN(C(=O)CO)C4)ncc2F)cn1 | 0.453 µM | 0.679 µM | 0.574 µM
Cc1cnc(Nc2ccc3c(c2)CCN(C(=O)Nc2cccc(Cl)c2)C3)nc1-c1cnn(C(C)C)c1 | 2.07 µM | 2.18 µM | 3.45 µM
CCNC(=O)N1CCc2cc(Nc3ncc(C)c(-c4cnn(C(C)C)c4)n3)ccc2C1 | 1.07 µM | 1.89 µM | 2.35 µM
CC(C)n1cc(-c2nc(Nc3ccc4c(c3)CCN(CCCO)C4)ncc2F)cn1 | 0.453 µM | 0.392 µM | 0.311 µM
CCCNC(=O)N1CCc2cc(Nc3ncc(C)c(-c4cnn(C(C)C)c4)n3)ccc2C1 | 2.07 µM | 1.21 µM | 1.76 µM
Cc1cnc(Nc2cc3c(cc2F)CN(CCO)CC3)nc1-c1cnn(C(C)C)c1 | > 5 µM | 2.57 µM | 4.46 µM
CC(C)n1cc(-c2nc(Nc3ccc4c(c3)CCN(CCO)C4)ncc2F)cn1 | 0.547 µM | 0.76 µM | 0.651 µM
CC(C)n1cc(-c2nc(Nc3ccc4c(c3)CCN(CCCCO)C4)ncc2F)cn1 | 0.455 µM | 0.445 µM | 0.604 µM
CC(C)n1cc(-c2nc(Nc3ccc4c(c3)CCN(CCCCCO)C4)ncc2F)cn1 | 0.353 µM | 0.42 µM | 0.492 µM
Cc1cnc(Nc2ccc3c(c2)CCN(CCCCO)C3)nc1-c1cnn(C(C)C)c1 | 0.879 µM | 0.234 µM | 0.268 µM
Cc1cnc(Nc2ccc3c(c2)CCN(CCCCCO)C3)nc1-c1cnn(C(C)C)c1 | 0.965 µM | – | –
CCOCCN1CCc2cc(Nc3ncc(C)c(-c4cnn(C(C)C)c4)n3)ccc2C1 | 0.568 µM | 0.302 µM | 0.339 µM
CCCCN1CCc2cc(Nc3ncc(C)c(-c4cnn(C(C)C)c4)n3)ccc2C1 | 0.754 µM | 0.64 µM | 0.592 µM
C=CCN1CCc2cc(Nc3ncc(C)c(-c4cnn(C(C)C)c4)n3)ccc2C1 | 0.868 µM | 0.452 µM | 0.288 µM
Cc1cnc(Nc2ccc3c(c2)CCN(CC#N)C3)nc1-c1cnn(C(C)C)c1 | 0.647 µM | – | 0.073 µM

Structure (SMILES) | IC50 [1] | IC50 [2] | IC50 [3]
Cc1cnc(Nc2ccc3c(c2)CCN(CCC#N)C3)nc1-c1cnn(C(C)C)c1 | 0.356 µM | 0.177 µM | 0.296 µM
C#CCN1CCc2cc(Nc3ncc(C)c(-c4cnn(C(C)C)c4)n3)ccc2C1 | 1.48 µM | – | –
CC#CCN1CCc2cc(Nc3ncc(C)c(-c4cnn(C(C)C)c4)n3)ccc2C1 | 1.56 µM | 0.908 µM | 0.794 µM
COC(=O)/C=C/CN1CCc2cc(Nc3ncc(C)c(-c4cnn(C(C)C)c4)n3)ccc2C1 | 0.497 µM | 0.01 µM | 0.014 µM
COC(=O)CCCN1CCc2cc(Nc3ncc(C)c(-c4cnn(C(C)C)c4)n3)ccc2C1 | 1.29 µM | 0.938 µM | 1.04 µM
Cc1cnc(Nc2ccc3c(c2)CCN(C(=O)/C=C/C(=O)c2ccccc2)C3)nc1-c1cnn(C(C)C)c1 | 0.458 µM | – | 0.052 µM
Cc1ccc(C(=O)/C=C/C(=O)N2CCc3cc(Nc4ncc(C)c(-c5cnn(C(C)C)c5)n4)ccc3C2)cc1 | 0.758 µM | 0.013 µM | 0.015 µM
Cc1ccc(C(=O)CCC(=O)N2CCc3cc(Nc4ncc(C)c(-c5cnn(C(C)C)c5)n4)ccc3C2)cc1 | 1.05 µM | 0.784 µM | 0.626 µM
Cc1cnc(Nc2ccc3c(c2)CCN(C(=O)/C=C/CN(C)C)C3)nc1-c1cnn(C(C)C)c1 | 0.88 µM | – | 0.012 µM
Cc1cnc(Nc2ccc3c(c2)CCN(C(=O)CCCN(C)C)C3)nc1-c1cnn(C(C)C)c1 | 1.48 µM | 2.48 µM | 0.985 µM
Cc1cnc(Nc2ccc3c(c2)CCN(C/C=C/C(=O)O)C3)nc1-c1cnn(C(C)C)c1 | 0.845 µM | 0.128 µM | 0.334 µM
Cc1cnc(Nc2ccc3c(c2)CCN(C/C=C/C(=O)NCCN2CCCCC2)C3)nc1-c1cnn(C(C)C)c1 | 2.09 µM | 1.2 µM | 0.554 µM
Cc1cnc(Nc2ccc3c(c2)CCN(C/C=C/C(=O)NC(C)(C)C)C3)nc1-c1cnn(C(C)C)c1 | 1.05 µM | 0.145 µM | 0.612 µM
CCN(CC)C(=O)/C=C/CN1CCc2cc(Nc3ncc(C)c(-c4cnn(C(C)C)c4)n3)ccc2C1 | 0.656 µM | 0.287 µM | 0.329 µM
Cc1cnc(Nc2ccc3c(c2)CN(CC#N)CC3)nc1-c1cnn(C(C)C)c1 | 0.425 µM | 0.076 µM | 0.095 µM
Cc1cnc(Nc2ccc3c(n2)CCN(CCCO)C3)nc1-c1cnn(C(C)C)c1 | 2.57 µM | 1.43 µM | 2.18 µM
Cc1cnc(Nc2ccc3c(c2)CN(C(=O)/C=C/CN(C)C)CC3)nc1-c1cnn(C(C)C)c1 | 0.456 µM | 0.025 µM | 0.015 µM
Cc1ccc(C(=O)/C=C/C(=O)N2CCc3ccc(Nc4ncc(C)c(-c5cnn(C(C)C)c5)n4)cc3C2)cc1 | 0.629 µM | – | –
COC(=O)/C=C/CN1CCc2ccc(Nc3ncc(C)c(-c4cnn(C(C)C)c4)n3)cc2C1 | 0.43 µM | 0.12 µM | 0.072 µM
Cc1cnc(Nc2ccc3c(c2)CN(C(=O)/C=C/C(=O)c2ccccc2)CC3)nc1-c1cnn(C(C)C)c1 | 0.535 µM | 0.061 µM | 0.043 µM
